Source: patent publication US20230348376A1 (TEIJIN PHARMA LIMITED, priority 2020, published 2023)

The compounds below were run against T1, human VDR (Homo sapiens, UniProt P11473) (assay: Evaluation of VDR transcription activity in human osteoblasts (HOS cells), luciferase reporter). Conditions: Activity (EC50, VDR transcription activity), HOS cells transfected with human VDR, human RXRα and DR3 luciferase reporter; 21 hours.
T1 sequence (P11473 1-427): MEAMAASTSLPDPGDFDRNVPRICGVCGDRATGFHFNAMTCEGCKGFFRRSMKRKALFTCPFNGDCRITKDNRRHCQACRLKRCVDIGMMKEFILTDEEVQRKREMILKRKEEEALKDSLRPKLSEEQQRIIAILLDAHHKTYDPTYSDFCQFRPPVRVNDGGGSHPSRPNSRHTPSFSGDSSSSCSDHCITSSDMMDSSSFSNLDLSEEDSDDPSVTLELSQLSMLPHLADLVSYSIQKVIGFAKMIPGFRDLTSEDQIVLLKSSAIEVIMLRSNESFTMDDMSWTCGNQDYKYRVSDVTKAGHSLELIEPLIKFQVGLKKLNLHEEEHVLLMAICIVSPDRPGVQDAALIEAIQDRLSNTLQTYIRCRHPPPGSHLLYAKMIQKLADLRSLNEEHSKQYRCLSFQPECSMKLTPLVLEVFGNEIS
T1 sequence (P19793 1-462 partner): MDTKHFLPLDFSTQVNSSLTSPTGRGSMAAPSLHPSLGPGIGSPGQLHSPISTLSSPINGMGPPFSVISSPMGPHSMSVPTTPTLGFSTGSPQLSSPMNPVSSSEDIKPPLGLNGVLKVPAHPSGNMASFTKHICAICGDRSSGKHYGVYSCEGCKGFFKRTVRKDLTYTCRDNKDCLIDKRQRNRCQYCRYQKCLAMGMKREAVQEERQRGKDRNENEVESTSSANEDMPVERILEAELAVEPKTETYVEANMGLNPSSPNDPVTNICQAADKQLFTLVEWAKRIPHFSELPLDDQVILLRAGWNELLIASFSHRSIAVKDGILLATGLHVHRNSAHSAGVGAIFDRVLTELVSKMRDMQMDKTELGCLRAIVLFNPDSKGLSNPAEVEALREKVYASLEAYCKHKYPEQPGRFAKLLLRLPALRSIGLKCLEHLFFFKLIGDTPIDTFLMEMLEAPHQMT
For `C[C@H](CCN1CC(OC(F)F)C1)[C@H]1CC[C@H]2/C(=C/C=C3C[C@@H](O)C[C@H](O)C3)CCC[C@]12C` [Compound A025, (1R,3R)-5-(2-((1R,3aS,7aR,E)-1-((R)-4-(3-(difluoromethoxy)azetidin-1-yl)butan-2-yl)-7a-methyloctahydro-4H-inden-4-ylidene)ethylidene)cyclohexane-1,3-diol], the EC50 was 100 to 1000 nM.
`COC1(C(F)(F)F)CN(CC[C@@H](C)[C@H]2CC[C@H]3/C(=C/C=C4C[C@@H](O)C[C@H](O)C4)CCC[C@]23C)C1` [Compound A027, (1R,3R)-5-(2-((1R,3aS,7aR,E)-1-((R)-4-(3-methoxy-3-(trifluoromethyl)azetidin-1-yl)butan-2-yl)-7a-methyloctahydro-4H-inden-4-ylidene)ethylidene)cyclohexane-1,3-diol] showed an EC50 of 1 to 10 nM.
Work on `C[C@H](CCN1CC(OC(F)(F)F)C1)[C@H]1CC[C@H]2/C(=C/C=C3C[C@@H](O)C[C@H](O)C3)CCC[C@]12C` [Compound A028, (1R,3R)-5-(2-((1R,3aS,7aR,E)-7a-methyl-1-((R)-4-(3-(trifluoromethoxy)azetidin-1-yl)butan-2-yl)octahydro-4H-inden-4-ylidene)ethylidene)cyclohexane-1,3-diol] yielded an EC50 of 100 to 1000 nM.
Compound `C=C1[C@H](O)CC(=C/C=C2\CCC[C@]3(C)[C@@H]([C@H](C)CCN4CC(OC(F)F)C4)CC[C@@H]23)C[C@H]1O` [Compound A030, (1R,3R)-5-(2-((1R,3aS,7aR,E)-1-((R)-4-(3-(difluoromethoxy)azetidin-1-yl)butan-2-yl)-7a-methyloctahydro-4H-inden-4-ylidene)ethylidene)-2-methylenecyclohexane-1,3-diol] has an EC50 of 10 to 100 nM.
`C=C1[C@H](O)CC(=C/C=C2\CCC[C@]3(C)[C@@H]([C@H](C)CN4CC[C@@H](C)C4)CC[C@@H]23)C[C@H]1O` [Compound B003, (1R,3R)-5-(2-((1R,3aS,7aR,E)-7a-methyl-1-((S)-1-((R)-3-methylpyrrolidin-1-yl)propan-2-yl)octahydro-4H-inden-4-ylidene)ethylidene)-2-methylenecyclohexane-1,3-diol] was tested, and the EC50 was 1 to 10 nM.
`C=C1[C@H](O)CC(=C/C=C2\CCC[C@]3(C)[C@@H]([C@H](C)CN4CC[C@H](CC)C4)CC[C@@H]23)C[C@H]1O` [Compound B005, (1R,3R)-5-(2-((1R,3aS,7aR,E)-1-((S)-1-((S)-3-ethylpyrrolidin-1-yl)propan-2-yl)-7a-methyloctahydro-4H-inden-4-ylidene)ethylidene)-2-methylenecyclohexane-1,3-diol] was tested, and the EC50 was 1 to 10 nM.
`CC[C@@H]1CCN(C[C@@H](C)[C@H]2CC[C@H]3/C(=C/C=C4C[C@@H](O)C[C@H](O)C4)CCC[C@]23C)C1` [Compound B008, (1R,3R)-5-(2-((1R,3aS,7aR,E)-1-((S)-1-((R)-3-ethylpyrrolidin-1-yl)propan-2-yl)-7a-methyloctahydro-4H-inden-4-ylidene)ethylidene)cyclohexane-1,3-diol] was tested, and the EC50 was 10 to 100 nM.
Compound `C=C1/C(=C\C=C2/CCC[C@]3(C)[C@@H]([C@@H](C)CN4CCCC4)CC[C@@H]23)C[C@@H](O)C[C@@H]1O` [Compound B009, (1R,3S,Z)-5-(2-((1R,3aS,7aR,E)-7a-methyl-1-((R)-1-(pyrrolidin-1-yl)propan-2-yl)octahydro-4H-inden-4-ylidene)ethylidene)-4-methylenecyclohexane-1,3-diol] has an EC50 of 100 to 1000 nM.
`C=C1/C(=C\C=C2/CCC[C@]3(C)[C@@H]([C@@H](C)CN4CC[C@H](C)C4)CC[C@@H]23)C[C@@H](O)C[C@@H]1O` [Compound B010, (1R,3S,Z)-5-(2-((1R,3aS,7aR,E)-7a-methyl-1-((R)-1-((S)-3-methylpyrrolidin-1-yl)propan-2-yl)octahydro-4H-inden-4-ylidene)ethylidene)-4-methylenecyclohexane-1,3-diol] was tested, and the EC50 was 10 to 100 nM.
With `C=C1/C(=C\C=C2/CCC[C@]3(C)[C@@H]([C@@H](C)CN4CC[C@@H](C)C4)CC[C@@H]23)C[C@@H](O)C[C@@H]1O` [Compound B011, (1R,3S,Z)-5-(2-((1R,3aS,7aR,E)-7a-methyl-1-((R)-1-((R)-3-methylpyrrolidin-1-yl)propan-2-yl)octahydro-4H-inden-4-ylidene)ethylidene)-4-methylenecyclohexane-1,3-diol] the EC50 was 10 to 100 nM.
`C[C@H](CN1CC[C@H](F)C1)[C@H]1CC[C@H]2/C(=C/C=C3C[C@@H](O)C[C@H](O)C3)CCC[C@]12C` [Compound B012, (1R,3R)-5-(2-((1R,3aS,7aR,E)-1-((S)-1-((S)-3-fluoropyrrolidin-1-yl)propan-2-yl)-7a-methyloctahydro-4H-inden-4-ylidene)ethylidene)cyclohexane-1,3-diol] gave an EC50 of 100 to 1000 nM.
Work on `C[C@H](CCN1CC[C@H](F)C1)[C@H]1CC[C@H]2/C(=C/C=C3C[C@@H](O)C[C@H](O)C3)CCC[C@]12C` [Compound B014, (1R,3R)-5-(2-((1R,3aS,7aR,E)-1-((R)-4-((S)-3-fluoropyrrolidin-1-yl)butan-2-yl)-7a-methyloctahydro-4H-inden-4-ylidene)ethylidene)cyclohexane-1,3-diol] yielded an EC50 of 10 to 100 nM.
`C[C@H](CCN1CC[C@@H](F)C1)[C@H]1CC[C@H]2/C(=C/C=C3C[C@@H](O)C[C@H](O)C3)CCC[C@]12C` [Compound B015, (1R,3R)-5-(2-((1R,3aS,7aR,E)-1-((R)-4-((R)-3-fluoropyrrolidin-1-yl)butan-2-yl)-7a-methyloctahydro-4H-inden-4-ylidene)ethylidene)cyclohexane-1,3-diol] showed an EC50 of 10 to 100 nM.
`C[C@H](CCCN1CC[C@H](F)C1)[C@H]1CC[C@H]2/C(=C/C=C3C[C@@H](O)C[C@H](O)C3)CCC[C@]12C` [Compound B016, (1R,3R)-5-(2-((1R,3aS,7aR,E)-1-((R)-5-((S)-3-fluoropyrrolidin-1-yl)pentan-2-yl)-7a-methyloctahydro-4H-inden-4-ylidene)ethylidene)cyclohexane-1,3-diol] showed an EC50 of 10 to 100 nM.
In the case of `C[C@H](CCCN1CC[C@@H](F)C1)[C@H]1CC[C@H]2/C(=C/C=C3C[C@@H](O)C[C@H](O)C3)CCC[C@]12C` [Compound B017, (1R,3R)-5-(2-((1R,3aS,7aR,E)-1-((R)-5-((R)-3-fluoropyrrolidin-1-yl)pentan-2-yl)-7a-methyloctahydro-4H-inden-4-ylidene)ethylidene)cyclohexane-1,3-diol], the EC50 is reported as 10 to 100 nM.
With `C=C1/C(=C\C=C2/CCC[C@]3(C)[C@@H]([C@H](C)CN4CC[C@@H](C(F)F)C4)CC[C@@H]23)C[C@@H](O)[C@H](C)[C@@H]1O` [Compound B025, (1R,2S,3 S,Z)-5-(2-((1R,3aS,7aR,E)-1-((S)-1-((R)-3-(difluoromethyl)pyrrolidin-1-yl)propan-2-yl)-7a-methyloctahydro-4H-inden-4-ylidene)ethylidene)-2-methyl-4-methylenecyclohexane-1,3-diol] the EC50 was 10 to 100 nM.
Work on `C=C1/C(=C\C=C2/CCC[C@]3(C)[C@@H]([C@H](C)CN4CC[C@H](C(C)(F)F)C4)CC[C@@H]23)C[C@@H](O)C[C@@H]1O` [Compound B028, (1R,3S,Z)-5-(2-((1R,3aS,7aR,E)-1-((S)-1-((S)-3-(1,1-difluoroethyl)pyrrolidin-1-yl)propan-2-yl)-7a-methyloctahydro-4H-inden-4-ylidene)ethylidene)-4-methylenecyclohexane-1,3-diol] yielded an EC50 of less than 1 nM.
For `C[C@H](CN1CC[C@H](C(C)(F)F)C1)[C@H]1CC[C@H]2/C(=C/C=C3C[C@@H](O)C[C@H](O)C3)CCC[C@]12C` [Compound B030, (1R,3R)-5-(2-((1R,3aS,7aR,E)-1-((S)-1-((S)-3-(1,1-difluoroethyl)pyrrolidin-1-yl)propan-2-yl)-7a-methyloctahydro-4H-inden-4-ylidene)ethylidene)cyclohexane-1,3-diol], the EC50 was 10 to 100 nM.
With `C=C1[C@H](O)CC(=C/C=C2\CCC[C@]3(C)[C@@H]([C@H](C)CN4CC[C@H](C(C)(F)F)C4)CC[C@@H]23)C[C@H]1O` [Compound B031, (1R,3R)-5-(2-((1R,3aS,7aR,E)-1-((S)-1-((S)-3-(1,1-difluoroethyl)pyrrolidin-1-yl)propan-2-yl)-7a-methyloctahydro-4H-inden-4-ylidene)ethylidene)-2methylenecyclohexane-1,3-diol] the EC50 was 1 to 10 nM.
`C=C1/C(=C\C=C2/CCC[C@]3(C)[C@@H]([C@H](C)CN4CC[C@@H](C(C)(F)F)C4)CC[C@@H]23)C[C@@H](O)C[C@@H]1O` [Compound B032, (1R,3S,Z)-5-(2-((1R,3aS,7aR,E)-1-((S)-1-((R)-3-(1,1-difluoroethyl)pyrrolidin-1-yl)propan-2-yl)-7a-methyloctahydro-4H-inden-4-ylidene)ethylidene)-4-methylenecyclohexane-1,3-diol] showed an EC50 of 1 to 10 nM.
